Reference: patent publication US8962648B2, “Tricyclic compounds and PBK inhibitors containing the same” (OncoTherapy Science, Inc., priority 2010, dated 2015)
Where a name gives a salt, the structure may show the parent alone. Read-outs that look alike come from different tables or passages of the source.

Key:
PBK = PBK (Homo sapiens (Human), UniProt Q96KB5); experiment: Kinase assay (IMAP fluorescence polarization, FITC-labeled histone H3 peptide); format: biochemical
Experimental: PBK activity was determined in the presence or absence of compounds using fluorescein isothiocyanate-labeled (FITC-labeled) histone H3 peptide as a substrate. […] The serially diluted compounds, 0.8 ng/micro-L PBK (Carna Biosciences) and 100 nM FITC-labeled histone H3 peptide were reacted in a reaction buffer (20 mM HEPES, 0.01% Tween-20, 0.3 mM MgCl2, 2 mM dithiothreitol, 50 micro-M ATP, pH 7.4) at room temperature for 1 hour. The reaction was stopped by the addition of three fold assay volume of progressive binding solution. […] IC50 values were calculated by nonlinear four parameter fit using SigmaPlot, version 10.0 (Systat Software, Inc.).

A549 cells = experiment: Cell-based assay, cellular growth (Cell Counting Kit-8, 72 hours)
Experimental: (§1) 100 micro-L of cell suspension was seeded onto 96-well microtiter plate (ViewPlate-96FTC, PerkinElmer). […] Cellular growth was determined using Cell Counting Kit-8 (DOJINDO) at 72 hours after the exposure of the candidate inhibitors. […] Accurate IC50 values were calculated as described previously.

BT-549 cells = experiment: as above; settings: Homo sapiens, BT549 cells
Experimental: as §1

T47D cells = experiment: as above
Experimental: as §1

HT-1197 cells = experiment: Cell-based assay, cellular growth (Cell Counting Kit-8, 72 hours), PBK-negative control cells
Experimental: as §1

22Rv1 cells = experiment: Cell-based assay, cellular growth (Cell Counting Kit-8, 72 hours); settings: Homo sapiens
[1] = PBK 0.8 ng/micro-L, 50 micro-M ATP, 100 nM FITC-labeled histone H3 peptide, room temperature 1 hour

PBK, sequence (Q96KB5 whole entry): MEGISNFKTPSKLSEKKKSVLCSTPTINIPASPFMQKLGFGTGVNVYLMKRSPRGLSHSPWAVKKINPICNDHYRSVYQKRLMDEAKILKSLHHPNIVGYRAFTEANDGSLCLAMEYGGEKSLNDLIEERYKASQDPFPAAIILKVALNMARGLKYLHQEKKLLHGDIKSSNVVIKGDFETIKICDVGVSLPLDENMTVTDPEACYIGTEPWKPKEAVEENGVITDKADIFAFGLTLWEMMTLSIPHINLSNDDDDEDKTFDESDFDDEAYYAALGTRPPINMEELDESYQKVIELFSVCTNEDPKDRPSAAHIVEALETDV

IC50 (PBK; [1]) [nM] | IC50 (A549 cells; Homo sapiens, A549, 72 h) [nM] | IC50 (BT-549 cells) [nM] | IC50 (T47D cells; Homo sapiens, T47D, 72 h) [nM] | IC50 (22Rv1 cells) [nM] | IC50 (PBK; PBK 0.8 ng/micro-L, 50 micro-M ATP, 100 nM FITC-labeled histone H3 peptide, room temperature 1 hour, hydrobromide) [nM] | IC50 (A549 cells; hydrobromide) [nM] | IC50 (T47D cells; hydrobromide) [nM] | IC50 (PBK; PBK 0.8 ng/micro-L, 50 micro-M ATP, 100 nM FITC-labeled histone H3 peptide, room temperature 1 hour, hydrochloride) [nM] | SMILES | IC50 (HT-1197 cells; Homo sapiens, HT1197, 72 h) [nM] | IC50 (HT-1197 cells; HT1197 cells (PBK-negative control), hydrobromide) [nM] | IC50 (PBK) [nM]
0.64 | 56 | 54 | 57 | 69 | – | – | – | – | C[C@@H](CN)c1ccc(-c2c(O)ccc3[nH]c(=O)c4sccc4c23)cc1 [Compound 1160, (R)-9-(4-(1-aminopropan-2-yl)phenyl)-8-hydroxythieno[2,3-c]quinolin-4(5H)-one hydrochloride] | 230 | – | –
– | 23 | 13 | 24 | 22 | – | – | – | – | Cc1cc(O)c(-c2ccc([C@@H](C)CN)cc2)c2c1[nH]c(=O)c1sccc12 [Compound 1169, (R)-9-(4-(1-aminopropan-2-yl)phenyl)-8-hydroxy-6-methylthieno[2,3-c]quinolin-4(5H)-one hydrobromide] | – | – | –
32 | 68 | 64 | 140 | – | – | – | – | – | CNC[C@H](C)c1ccc(-c2c(OC)cc(C)c3[nH]c(=O)c4sccc4c23)cc1 [Compound 1298, (R)-8-methoxy-6-methyl-9-(4-(1-(methylamino)propan-2-yl)phenyl)thieno[2,3-c]quinolin-4(5H)-one hydrochloride] | 160 | – | –
75 | 970 | 740 | 830 | – | – | – | – | – | Cc1cc(O)c(-c2ccc(C3CCCNC3)cc2)c2c1[nH]c(=O)c1sccc12 (centres unmarked) [Compound 1302, 8-hydroxy-6-methyl-9-(4-(piperidin-3-yl)phenyl)thieno[2,3-c]quinolin-4(5H)-one hydrochloride] | 1500 | – | –
14 | 92 | 81 | 130 | – | – | – | – | – | Cc1cc(O)c(-c2ccc([C@H](C)CN)c(F)c2)c2c1[nH]c(=O)c1sccc12 [Compound 1303, (S)-9-(4-(1-aminopropan-2-yl)-3-fluorophenyl)-8-hydroxy-6-methylthieno[2,3-c]quinolin-4(5H)-one] | 510 | – | –
15 | 20 | 21 | 40 | – | – | – | – | – | COc1cc(C)c2[nH]c(=O)c3sccc3c2c1-c1ccc([C@@H](C)CN)cc1 [Compound 1305, (R)-9-(4-(1-aminopropan-2-yl)phenyl)-8-methoxy-6-methylthieno [2,3-c]quinolin-4(5H)-one hydrochloride] | 64 | – | –
– | – | 42 | – | – | 18 | 57 | 85 | – | CNC[C@H](C)c1ccc(-c2c(O)cc(C)c3[nH]c(=O)c4sccc4c23)cc1 [Compound 1307, (R)-8-hydroxy-6-methyl-9-(4-(1-(methylamino)propan-2-yl)phenyl)thieno [2,3-c]quinolin-4(5H)-one hydrobromide] | – | 150 | –
– | 15 | 8.4 | 15 | – | – | – | – | 3.6 | Cc1cc(O)c(-c2ccc([C@@H](C)CN)c(F)c2)c2c1[nH]c(=O)c1sccc12 [Compound 1318, (R)-9-(4-(1-aminopropan-2-yl)-3-fluorophenyl)-8-hydroxy-6-methylthieno[2,3-c]quinolin-4(5H)-one hydrochloride] | 63 | – | –
43 | 100 | 110 | 260 | – | – | – | – | – | C[C@@H](CN(C)C)c1ccc(-c2c(O)cc(Cl)c3[nH]c(=O)c4sccc4c23)cc1 [Compound 1347, (R)-6-chloro-9-(4-(1-(dimethylamino)propan-2-yl)phenyl)-8-hydroxythieno [2,3-c]quinolin-4(5H)-one hydrochloride] | 260 | – | –
40 | 55 | 71 | 99 | – | – | – | – | – | CC[C@@H](CN)c1ccc(-c2c(O)cc(C)c3[nH]c(=O)c4sccc4c23)cc1 [Compound 1352, (R)-9-(4-(1-aminobutan-2-yl)phenyl)-8-hydroxy-6-methylthieno[2,3-c]quinolin-4(5H)-one hydrochloride] | 340 | – | –
55 | 270 | 260 | 300 | – | – | – | – | – | CNCCc1ccc(-c2c(O)cc(C)c3[nH]c(=O)c4sccc4c23)cc1 [Compound 1364, 8-hydroxy-6-methyl-9-(4-(2-(methylamino)ethyl)phenyl)thieno[2,3-c]quinolin-4(5H)-one hydrochloride] | 660 | – | –

SMILES | IC50 (PBK; [1]) [nM] | IC50 (A549 cells; Homo sapiens, A549, 72 h) [nM] | IC50 (BT-549 cells) [nM] | IC50 (T47D cells; Homo sapiens, T47D, 72 h) [nM] | IC50 (22Rv1 cells) [nM] | IC50 (PBK; PBK 0.8 ng/micro-L, 50 micro-M ATP, 100 nM FITC-labeled histone H3 peptide, room temperature 1 hour, hydrobromide) [nM] | IC50 (A549 cells; hydrobromide) [nM] | IC50 (T47D cells; hydrobromide) [nM] | IC50 (PBK; PBK 0.8 ng/micro-L, 50 micro-M ATP, 100 nM FITC-labeled histone H3 peptide, room temperature 1 hour, hydrochloride) [nM] | IC50 (HT-1197 cells; Homo sapiens, HT1197, 72 h) [nM] | IC50 (HT-1197 cells; HT1197 cells (PBK-negative control), hydrobromide) [nM] | IC50 (PBK) [nM]
COc1cc(C)c2[nH]c(=O)c3sccc3c2c1-c1ccc([C@H](C)CN)c(F)c1 [Compound 1310, (S)-9-(4-(1-aminopropan-2-yl)-3-fluorophenyl)-8-methoxy-6-methylthieno[2,3-c]quinolin-4(5H)-one hydrochloride] | – | 370 | 400 | 800 | – | – | – | – | – | 890 | – | 54
Cc1cc(O)c(-c2ccc([C@@H](C)CN(C)C)c(F)c2)c2c1[nH]c(=O)c1sccc12 [Compound 1311, (R)-9-(4-(1-(dimethylamino)propan-2-yl)-3-fluorophenyl)-8-hydroxy-6-methylthieno[2,3-c]quinolin-4(5H)-one hydrochloride] | – | 45 | 37 | 70 | – | – | – | – | – | 110 | – | 17
CNC[C@H](C)c1ccc(-c2c(O)cc(C)c3[nH]c(=O)c4sccc4c23)cc1F [Compound 1315, (R)-9-(3-fluoro-4-(1-(methylamino)propan-2-yl)phenyl)-8-hydroxy-6-methylthieno[2,3-c]quinolin-4(5H)-one hydrochloride] | – | 34 | 24 | 41 | – | – | – | – | – | 100 | – | 8.1
CNC[C@H](C)c1ccc(-c2c(OC)cc(C)c3[nH]c(=O)c4sccc4c23)cc1F [Compound 1316, (R)-9-(3-fluoro-4-(1-(methylamino)propan-2-yl)phenyl)-8-methoxy-6-methylthieno[2,3-c]quinolin-4(5H)-one hydrochloride] | – | 86 | 83 | 160 | – | – | – | – | – | 230 | – | 33
COc1cc(C)c2[nH]c(=O)c3sccc3c2c1-c1ccc([C@@H](C)CN)c(F)c1 [Compound 1317, (R)-9-(4-(1-aminopropan-2-yl)-3-fluorophenyl)-8-methoxy-6-methylthieno[2,3-c]quinolin-4(5H)-one hydrochloride] | – | 42 | 36 | 72 | – | – | – | – | – | 100 | – | 22
